In ChEMBL document CHEMBL2074133, “Effect of phenobarbital on the expression of bile salt and organic anion transporters of rat liver” (J Hepatol, 2001):

Legend:
Format in all cases: functional, organism-based, Sprague-Dawley
[1] = target: T1, Solute carrier organic anion transporter family member 1A1 (Rattus norvegicus, UniProt P46720); assay: (§1) TP_TRANSPORTER: Western in vivo SD rat, liver
T1 sequence (P46720 whole entry): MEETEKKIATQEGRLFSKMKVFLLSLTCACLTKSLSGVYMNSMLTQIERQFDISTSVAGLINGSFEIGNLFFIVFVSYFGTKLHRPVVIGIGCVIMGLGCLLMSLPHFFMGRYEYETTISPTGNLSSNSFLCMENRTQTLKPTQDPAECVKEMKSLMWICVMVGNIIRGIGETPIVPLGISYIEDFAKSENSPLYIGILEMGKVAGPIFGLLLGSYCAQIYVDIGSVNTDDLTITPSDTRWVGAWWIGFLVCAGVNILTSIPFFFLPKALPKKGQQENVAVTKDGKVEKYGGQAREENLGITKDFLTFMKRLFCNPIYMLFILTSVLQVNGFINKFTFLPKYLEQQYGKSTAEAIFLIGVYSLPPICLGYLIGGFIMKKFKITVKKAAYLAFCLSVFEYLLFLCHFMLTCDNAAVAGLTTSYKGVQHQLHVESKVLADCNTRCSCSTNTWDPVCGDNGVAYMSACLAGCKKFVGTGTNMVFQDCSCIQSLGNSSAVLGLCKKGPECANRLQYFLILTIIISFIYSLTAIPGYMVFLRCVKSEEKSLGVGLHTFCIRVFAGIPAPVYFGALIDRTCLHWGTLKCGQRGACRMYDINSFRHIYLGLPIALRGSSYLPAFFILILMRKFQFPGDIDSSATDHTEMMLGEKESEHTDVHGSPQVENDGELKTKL

[2] = target: T2, Solute carrier organic anion transporter family member 1A4 (Rattus norvegicus, UniProt O35913); assay: as §1
T2 sequence (O35913 whole entry): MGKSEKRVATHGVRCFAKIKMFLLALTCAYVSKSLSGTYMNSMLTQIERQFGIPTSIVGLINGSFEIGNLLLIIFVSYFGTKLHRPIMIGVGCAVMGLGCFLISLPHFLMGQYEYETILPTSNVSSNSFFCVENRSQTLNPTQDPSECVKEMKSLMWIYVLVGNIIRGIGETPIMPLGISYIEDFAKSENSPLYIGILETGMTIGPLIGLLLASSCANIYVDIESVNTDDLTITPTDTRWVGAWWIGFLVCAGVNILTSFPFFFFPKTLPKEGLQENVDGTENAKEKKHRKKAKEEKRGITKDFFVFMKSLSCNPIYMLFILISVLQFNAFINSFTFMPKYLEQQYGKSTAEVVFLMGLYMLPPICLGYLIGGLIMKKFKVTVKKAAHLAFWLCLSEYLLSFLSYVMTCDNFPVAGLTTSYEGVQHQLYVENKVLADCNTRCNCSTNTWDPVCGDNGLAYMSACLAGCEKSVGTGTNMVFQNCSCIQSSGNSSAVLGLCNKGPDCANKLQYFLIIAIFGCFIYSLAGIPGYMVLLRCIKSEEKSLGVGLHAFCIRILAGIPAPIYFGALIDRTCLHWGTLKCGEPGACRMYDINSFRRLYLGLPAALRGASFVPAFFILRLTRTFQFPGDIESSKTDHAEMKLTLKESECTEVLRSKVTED

[3] = target: T1, Solute carrier organic anion transporter family member 1A1; assay: (§2) TP_TRANSPORTER: Northern blot in vivo SD rat, liver
[4] = target: T2, Solute carrier organic anion transporter family member 1A4; assay: as §2

CCC1(c2ccccc2)C(=O)NC(=O)NC1=O [PHENOBARBITAL]
Activity [1]: is not an inducer [-] | Activity [2]: inducer [+] | Activity [3]: is not an inducer [-] | Activity [4]: inducer [+]
